# Measurements as given in EP1969933A1, “Di-halogen phenoxy phenylamidines and their use as fungicides” (Bayer CropScience AG, priority 2007, dated 2008).
# Read-outs that look alike come from different tables or passages of the source.
# Tests used:
# [1] = logP (acidic, pH 2.3, and neutral); format: physicochemical; details: for logP: read-out: logP neutr.
# Puccinia recondita = test: Puccinia test (wheat) / protective; format: in vivo; details: 240 h, 1000 ppm active ingredient, protective spray, evaluated 10 days after inoculation, 0 % = control, 100 % = no infestation, read-out: Wirkungsgrad
# Source text: (§1) Zur Herstellung einer zweckmäßigen Wirkstoffzubereitung vermischt man 1 Gewichtsteil Wirkstoff mit den angegebenen Mengen Lösungsmittel und Emulgator und verdünnt das Konzentrat mit Wasser auf die gewünschte Konzentration.
# Zur Prüfung auf protektive Wirksamkeit werden junge Pflanzen mit der Wirkstoffzubereitung in der angegebenen Aufwandmenge besprüht. Nach Antrocknen des Spritzbelages werden die Pflanzen mit einer Konidiensuspension von Puccinia recondita besprüht. Die Pflanzen verbleiben 48 Stunden bei 20°C und 100 % relativer Luftfeuchtigkeit in einer Inkubationskabine.
# Die Pflanzen werden dann in einem Gewächshaus bei einer Temperatur von ca. 20°C und einer relativen Luftfeuchtigkeit von 80 % aufgestellt, um die Entwicklung von Rostpusteln zu begünstigen.
# 10 Tage nach der Inokulation erfolgt die Auswertung. Dabei bedeutet 0 % ein Wirkungsgrad, der demjenigen der Kontrolle entspricht, während ein Wirkungsgrad von 100 % bedeutet, daß kein Befall beobachtet wird.
# [2] = test system: Erysiphe graminis f. sp. hordei; test: Erysiphe test (barley) / protective; format: in vivo; details: Blumeria graminis, 168 h, 500 ppm active ingredient, evaluated 7 days after inoculation, 0 % = control, 100 % = no infestation, read-out: Wirkungsgrad
# Source text: as §1
# Zur Prüfung auf protektive Wirksamkeit bespritzt man junge Getreidepflanzen mit der Wirkstoffzubereitung in der angegebenen Aufwandmenge. 1 Tag nach der Behandlung werden die Pflanzen mit Sporen von Erysiphe graminis f. sp. hordei inokuliert. Anschließend werden die Pflanzen in einem Gewächshaus bei 70 % relativer Luftfeuchtigkeit und einer Temperatur von 18°C aufgestellt.
# 7 Tage nach der Inokulation erfolgt die Auswertung. Dabei bedeutet 0 % ein Wirkungsgrad, der demjenigen der Kontrolle entspricht, während ein Wirkungsgrad von 100 % bedeutet, daß kein Befall beobachtet wird.
# Leptosphaeria nodorum = Leptosphaeria nodorum test (wheat) / protective; format: in vivo; details: 500 ppm active ingredient, evaluated 12-14 days after inoculation, 0 % = control, 100 % = no infestation
# Source text: as §1
# Zur Prüfung auf protektive Wirksamkeit bespritzt man junge Weizenpflanzen mit der Wirkstoffzubereitung in der angegebenen Aufwandmenge. 1 Tag nach der Behandlung werden die Pflanzen mit einer wäßrigen Sporensuspension von Leptosphaeria nodorum inokuliert und verbleiben dann 48h bei 100% rel. Luftfeuchte und 20°C. Anschließend werden die Pflanzen in einem Gewächshaus bei 80 % rel. Luftfeuchtigkeit und einer Temperatur von 22°C aufgestellt.
# 12-14 Tage nach der Inokulation erfolgt die Auswertung. Dabei bedeutet 0 % ein Wirkungsgrad, der demjenigen der Kontrolle entspricht, während ein Wirkungsgrad von 100 % bedeutet, dass kein Befall beobachtet wird.
# Podosphaera leucotricha = test: Podosphaera test (apple) / protective; format: in vivo; details: 240 h, 100 ppm active ingredient, evaluated 10 days after inoculation, 0 % = control, 100 % = no infestation, read-out: Wirkungsgrad
# Source text: as §1
# (§2) Zur Prüfung auf protektive Wirksamkeit werden junge Pflanzen mit der Wirkstoffzubereitung in der angegebenen Aufwandmenge besprüht. Nach Antrocknen des Spritzbelages werden die Pflanzen mit einer wäßrigen Sporensuspension des Apfelmehltauerregers Podosphaera leucotricha inokuliert. Die Pflanzen werden dann im Gewächshaus bei ca. 23°C und einer relativen Luftfeuchtigkeit von ca. 70% aufgestellt.
# (§3) 10 Tage nach der Inokulation erfolgt die Auswertung. Dabei bedeutet 0% ein Wirkungsgrad, der demjenigen der Kontrolle entspricht, während ein Wirkungsgrad von 100% bedeutet, daß kein Befall beobachtet wird.
# Sphaerotheca fuliginea = test: Sphaerotheca test (cucumber) / protective; format: in vivo; details: Podosphaera fuliginea, 168 h, 100ppm active ingredient, evaluated 7 days after inoculation, 0 % = control, 100 % = no infestation, read-out: Wirkungsgrad
# Source text: as §1
# as §2, with “von Sphaerotheca fuliginea” for “des Apfelmehltauerregers Podosphaera leucotricha”, “dann” for “dann im Gewächshaus”, “70% im Gewächshaus” for “70%”
# 7 Tage nach der Inokulation erfolgt die Auswertung. Dabei bedeutet 0% ein Wirkungsgrad, der demjenigen der Kontrolle entspricht, während ein Wirkungsgrad von 100% bedeutet, daß kein Befall beobachtet wird.
# Uromyces appendiculatus = test: Uromyces test (bean) / protective; format: in vivo; details: 10ppm active ingredient, evaluated 10 days after inoculation, 0 % = control, 100 % = no infestation
# Source text: as §1
# Zur Prüfung auf protektive Wirksamkeit werden junge Pflanzen mit der Wirkstoffzubereitung in der angegebenen Aufwandmenge besprüht. Nach Antrocknen des Spritzbelages werden die Pflanzen mit einer wäßrigen Sporensuspension des Bohnenrosterregers Uromyces appendiculatus inokuliert und verbleiben dann 1 Tag bei ca. 20°C und 100% relativer Luftfeuchtigkeit in einer Inkubations-kabine.
# Die Pflanzen werden dann im Gewächshaus bei ca. 21°C und einer relativen Luftfeuchtigkeit von ca. 90% aufgestellt.
# as §3
# [3] = pH 2, pH 2,3, read-out: log P (pH 2,3)
# [4] = pH 2.3, acidic, read-out: logP sauer
Compound,logP ([1]; neutral),"logD [1, 4]",pest or weed control at 1000 ppm (Puccinia recondita),pest or weed control at 500 ppm [2],other results
"Cc1cc(Oc2ccc(Cl)c(Cl)c2)c(C)cc1N [4-(3,4-Dichlorphenoxy)-2,5-dimethylanilin]",–,–,–,–,"logD [1, 3]: 3.51"
"Cc1cc([N+](=O)[O-])c(C)cc1Oc1ccc(Cl)c(Cl)c1 [4-(3,4-Dichlorphenoxy)-2,5-dimethylnitrobenzol]",–,–,–,–,"logD [1, 3]: 5.19"
CCN(C)C=Nc1cc(C)c(Oc2ccc(F)c(F)c2)cc1C [Nr. 2],6.2,2.37,–,–,–
CCN(C)C=Nc1cc(C)c(Oc2cc(F)cc(Br)c2)cc1C [Nr. 3],5.8,2.29,≥ 70%,≥ 70%,Wirkungsgrad (Leptosphaeria nodorum): ≥ 70%; pest or weed control at 100 ppm (Podosphaera leucotricha): ≥ 70%; pest or weed control at 100 ppm (Sphaerotheca fuliginea): ≥ 70%; Wirkungsgrad (Uromyces appendiculatus): ≥ 70%
CCN(C)C=Nc1cc(C)c(Oc2cc(Br)cc(Br)c2)cc1C [Nr. 4],6,2.5,≥ 70%,≥ 70%,pest or weed control at 100 ppm (Podosphaera leucotricha): ≥ 70%; pest or weed control at 100 ppm (Sphaerotheca fuliginea): ≥ 70%
Cc1cc(Oc2cc(Br)cc(Br)c2)c(C)cc1N=CN(C)C(C)C [Nr. 5],6.4,2.62,≥ 70%,≥ 70%,–
CCN(C)C=Nc1cc(C)c(Oc2cc(Cl)cc(Br)c2)cc1C [Nr. 6],6.4,2.56,≥ 70%,≥ 70%,pest or weed control at 100 ppm (Podosphaera leucotricha): ≥ 70%; pest or weed control at 100 ppm (Sphaerotheca fuliginea): ≥ 70%
Cc1cc(Oc2cc(Cl)cc(Br)c2)c(C)cc1N=CN(C)C(C)C [Nr. 7],6.8,2.7,≥ 70%,≥ 70%,pest or weed control at 100 ppm (Podosphaera leucotricha): ≥ 70%; pest or weed control at 100 ppm (Sphaerotheca fuliginea): ≥ 70%; Wirkungsgrad (Uromyces appendiculatus): ≥ 70%
CCN(C)C=Nc1cc(C)c(Oc2cc(F)cc(Cl)c2)cc1C [Nr. 8],5.6,2.21,≥ 70%,≥ 70%,–
Cc1cc(Oc2cc(F)cc(Cl)c2)c(C)cc1N=CN1CCCCC1 [Nr. 9],6.3,2.42,≥ 70%,≥ 70%,pest or weed control at 100 ppm (Podosphaera leucotricha): ≥ 70%; pest or weed control at 100 ppm (Sphaerotheca fuliginea): ≥ 70%
Cc1cc(Oc2cc(F)cc(Cl)c2)c(C)cc1N=CN1CCCC1 [Nr. 10],5.6,2.26,–,–,–
CCCN(C)C=Nc1cc(C)c(Oc2cc(F)cc(Cl)c2)cc1C [Nr. 11],6.1,2.39,≥ 70%,≥ 70%,pest or weed control at 100 ppm (Podosphaera leucotricha): ≥ 70%; pest or weed control at 100 ppm (Sphaerotheca fuliginea): ≥ 70%
Cc1cc(Oc2cc(F)cc(Br)c2)c(C)cc1N=CN1CCCCC1 [Nr. 12],6.5,2.55,≥ 70%,≥ 70%,–
Cc1cc(Oc2cc(F)cc(Br)c2)c(C)cc1N=CN1CCCC1 [Nr. 13],5.7,2.37,≥ 70%,≥ 70%,–
CCCN(C)C=Nc1cc(C)c(Oc2cc(F)cc(Br)c2)cc1C [Nr. 14],7.4,2.37,≥ 70%,≥ 70%,–
CCN(C)C=Nc1cc(C)c(Oc2ccc(Cl)c(Br)c2)cc1C [Nr. 15],6.1,2.23,≥ 70%,–,Wirkungsgrad (Leptosphaeria nodorum): ≥ 70%

Compound,logP ([1]; neutral),"logD [1, 4]",pest or weed control at 1000 ppm (Puccinia recondita),pest or weed control at 500 ppm [2],other results
Cc1cc(Oc2ccc(Cl)c(Br)c2)c(C)cc1N=CN1CCCCC1 [Nr. 16],6.9,2.66,≥ 70%,–,–
CCCN(C)C=Nc1cc(C)c(Oc2ccc(Cl)c(Br)c2)cc1C [Nr. 17],6.6,2.64,–,–,–
Cc1cc(Oc2ccc(Cl)c(Br)c2)c(C)cc1N=CN1CCCC1 [Nr. 18],6.6,2.56,–,–,–
CCN(C)C=Nc1cc(C)c(Oc2cc(F)cc(I)c2)cc1C [Nr. 19],–,2.4,≥ 70%,–,–
CCCN(C)C=Nc1cc(C)c(Oc2cc(F)cc(I)c2)cc1C [Nr. 20],6.6,2.61,–,–,–
Cc1cc(Oc2cc(F)cc(I)c2)c(C)cc1N=CN1CCCCC1 [Nr. 21],6.8,2.6,≥ 70%,–,Wirkungsgrad (Leptosphaeria nodorum): ≥ 70%
Cc1cc(Oc2cc(F)cc(I)c2)c(C)cc1N=CN1CCCC1 [Nr. 22],6.6,2.46,–,–,–
CCN(C)C=Nc1cc(C)c(Oc2ccc(F)c(Br)c2)cc1C [Nr. 23],5.7,2.29,≥ 70%,–,pest or weed control at 100 ppm (Sphaerotheca fuliginea): ≥ 70%; Wirkungsgrad (Uromyces appendiculatus): ≥ 70%
Cc1cc(Oc2ccc(Cl)c(I)c2)c(C)cc1N=CN(C)C(C)C [Nr. 24],6.2,2.4,≥ 70%,–,Wirkungsgrad (Leptosphaeria nodorum): ≥ 70%; pest or weed control at 100 ppm (Podosphaera leucotricha): ≥ 70%; pest or weed control at 100 ppm (Sphaerotheca fuliginea): ≥ 70%; Wirkungsgrad (Uromyces appendiculatus): ≥ 70%
CCN(C)C=Nc1cc(C)c(Oc2ccc(Cl)c(I)c2)cc1C [Nr. 25],–,2.29,≥ 70%,–,Wirkungsgrad (Leptosphaeria nodorum): ≥ 70%; pest or weed control at 100 ppm (Podosphaera leucotricha): ≥ 70%
Cc1cc(Oc2ccc(Cl)c(I)c2)c(C)cc1N=CN1CCCCC1 [Nr. 26],–,2.52,–,–,Wirkungsgrad (Leptosphaeria nodorum): ≥ 70%
CCN(C)C=Nc1cc(C)c(Oc2ccc(Br)c(I)c2)cc1C [Nr. 27],6.1,2.67,–,–,Wirkungsgrad (Leptosphaeria nodorum): ≥ 70%
CCCN(C)C=Nc1cc(C)c(Oc2cc(F)cc(Br)c2)cc1C [Nr. 28],–,–,–,–,"logP sauer ([1]; acidic): 2,91; logP neutr. ([1]; neutral): 6,9"
Cc1cc(Oc2cc(F)cc(Br)c2)c(C)cc1N=CN1CC(C)OC(C)C1 (stereo not shown) [Nr. 29],5.8,2.59,–,–,–
"CCN(C)C=Nc1cc(C)c(Oc2ccc(Cl)c(Cl)c2)cc1C [Nr. 30, N-Ethyl-N-methyl-N'-[4-(3,4-dichlorphenoxy)-2,5-dimethylphenyl]formamidin]",–,–,–,–,"logD [1, 3]: 2.48"
